Drawing on patent EP4818178A1, “PREPARATION AND USE OF PYRIMIDOTHIOPYRANONE KRAS MUTANT PROTEIN INHIBITOR” (Ya Therapeutics Inc, priority 2024, dated 2025), this text covers IC50 for 7 compounds.

Chain of KRasG12D (P01116 1-188 isoform P01116-2 G12D): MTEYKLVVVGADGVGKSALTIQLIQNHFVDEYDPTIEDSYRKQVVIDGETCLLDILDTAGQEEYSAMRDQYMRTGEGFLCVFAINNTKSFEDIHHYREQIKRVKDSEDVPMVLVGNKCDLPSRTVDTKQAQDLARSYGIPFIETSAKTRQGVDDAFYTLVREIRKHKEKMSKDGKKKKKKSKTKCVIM

The target in the experiment is KRasG12D (Homo sapiens, UniProt P01116, G12D). Briefly: KRAS inhibitory activity test, TR-FRET (inhibition of binding of KRasG12D to GTP, SOS/GTP nucleotide exchange). It is filed as biochemical. The conditions noted are these: read-out: IC50 values of the compounds for inhibiting KRAS enzymes, G12D. Here is the method:
• 1. […] Reagent Preparation: • a. Storage Reagents:
Prepare a 1L solution by mixing 20mL of 1000mM HEPES, 20mL of 500mM EDTA, 10mL of 5M sodium chloride, 0.1mL of 100% Tween 20, and 949.9mL of water. Sterilize by filtration and store at 4°C.
Prepare a 1L solution by mixing 20mL of 1000mM HEPES, 10mL of 1000mM magnesium chloride, 30mL of 5M sodium chloride, 0.05mL of 100% Tween 20, and 939.95mL of water. Sterilize by filtration and store at 4°C. 3) KRAS/Bodipy GDP/Tb-SA Mixture: Mix 9.5 µL of 95 µM KRasG12D protein with 440.5 µL of KRAS nucleotide exchange buffer. Incubate at room temperature for 1 hour. Then, mix with 8.4 µL of 17.9 µM Tb-SA, 1.8 µL of 5 mM Bodipy GDP, and 9539.8 µL of KRAS experimental buffer to prepare […]. After mixing, incubate at room temperature for 6 hours and store at -80°C.
• 1) KRAS Enzyme Solution: Mix 73.3 µL of KRAS/Bodipy GDP/Tb-SA mixture with 2126.7 µL of KRAS experimental buffer to prepare a 2200 µL solution. • 2) SOS/GTP Mixture
c. Experimental Procedure: Mix 1.59 µL of 166 µM SOS protein with 198 µL of 100 mM... GTP and 0.41 µL KRAS buffer were prepared to a 2200 µL solution. The stock solution concentration of the control compound was 1 mM, and the stock solution concentration of the test compound was 10 mM. 9 µL of the control compound and the test compound were transferred to a 384-LDV plate. The compound on the LDV plate was 3-fold diluted 10-point using Bravo. 9 nL of the compound on the LDV plate was transferred to the experimental plate using ECHO. 3 µL of a 3 nM Kras/0.5 nM TB-SA/30 nM BodipyGDP mixture and 3 µL of Ras buffer were added to each well of the experimental plate using a Dragonfly autopilot. The plate was centrifuged at 1000 rpm for 1 minute. The plate was incubated at room temperature for 1 hour. 3 µL of 120 nM SOS/9 mM KRAS buffer was added to each well of the experimental plate using a Dragonfly autopilot. The […] was centrifuged at 1000 rpm for 1 minute; the plate was incubated at room temperature for 1 hour; the plate was read and the data were recorded using Envision; the data were analyzed using Excel and Xlfit to calculate the IC50of the test compound. "++++" indicates IC50≤ 10 nM; "+++" indicates 10 nM < IC50≤ 100 nM; "++" indicates 100 nM < IC50≤ 2000 nM; "+" indicates 2000 nM < IC50.
As to `Cc1cc(N)nc([C@H]2Cc3nc(OC[C@@]45CCCN4C[C@H](F)C5)nc(N4CCC[C@@](C)(O)C4)c3CS2(=O)=O)c1C(F)(F)F` [Compound 8B, (7R)-7-(6-amino-4-methyl-3-(trifluoromethyl)pyridin-2-yl)-2-(((2R,7AS)-2-fluorotetrahydro-1H-pyrrolazin-7a(5H)-yl)methoxy)-4-((R)-3-hydroxy-3-methylpiperidin-1-yl) -7,8-dihydro-5H-thiopyrano[4,3-d]pyrimidine-6,6-dioxide], the 50% inhibitory concentration (IC50) fell in the range of 0.01 to 0.1 µM.

As for `Cc1cc(N)c(F)c([C@@H]2Cc3nc(OC[C@@]45CCCN4CC(=C(F)F)C5)nc(N4CC5CCC(C4)N5)c3CS2(=O)=O)c1C(F)(F)F` [Compound 9A, (7S)-7-(3-amino-2-fluoro-5-methyl-6-(trifluoromethyl)phenyl)-4-(3,8-diazabicyclo[3. 2.1]octane-3-yl)-2-(((S)-2-(difluoromethylene)tetrahydro-1H-pyrrolazin-7a(5H)-yl)methoxy)-7,8-dihydro-5H-thiopyrano[4,3-d]pyrimidine-6,6-dioxide], the IC50 was ≤ 0.01 µM.

On to `Cc1cc(N)c(F)c(C2Cc3nc(OC[C@@]45CCCN4CC(=CF)C5)nc(N4CC5CCC(C4)N5)c3CS2(=O)=O)c1C(F)(F)F` (stereo partly drawn) [Compound 10, 7-7-(3-amino-2-fluoro-5-methyl-6-(trifluoromethyl)phenyl)-4-(3,8-diazabicyclo[3.2.1]octane-3-yl)-2-(((S)-2-(fluoromethylene)tetrahydro-1H-pyrrolazin-7a(5H)-yl)methoxy) -7,8-dihydro-5H-thiopyrano[4,3-d]pyrimidine-6,6-dioxide], for which the IC50 was ≤ 0.01 µM.

For `Cc1cc(N)c(F)c([C@@H]2Cc3nc(OC[C@@]45CCCN4CC(=C(F)F)C5)nc(N4CC5CCC(C4)N5)c3CS2(=O)=O)c1C(F)(F)F` [Compound 10A, (7S)-7-(3-amino-2-fluoro-5-methyl-6-(trifluoromethyl)phenyl)-4-(3,8-diazabicyclo[3. 2.1]octane-3-yl)-2-(((S)-2-(difluoromethylene)tetrahydro-1H-pyrrolazin-7a(5H)-yl)methoxy)-7,8-dihydro-5H-thiopyrano[4,3-d]pyrimidine-6,6-dioxide], the IC50 is ≤ 0.01 µM.

For `C=C1CN2CCC[C@@]2(COc2nc3c(c(N4CC5CCC(C4)N5)n2)CS(=O)(=O)C(c2c(F)c(N)cc(C)c2C(F)(F)F)C3)C1` (stereo partly drawn) [Compound 11, 7-(3-amino-2-fluoro-5-methyl-6-(trifluoromethyl)phenyl)-4-(3,8-diazabicyclo[3.2.1]octane-3-yl)-2-(((S)-2-(methylene)tetrahydro-1H-pyrrolazin-7a(5H)-yl)methoxy)-7,8-d ihydro-5H-thiopyrano[4,3-d]pyrimidine-6,6-dioxide], the IC50 is ≤ 0.01 µM.

In the case of `C=C1CN2CCC[C@@]2(COc2nc3c(c(N4CC5CCC(C4)N5)n2)CS(=O)(=O)[C@H](c2c(F)c(N)cc(C)c2C(F)(F)F)C3)C1` [Compound 11A, (7S)-7-(3-amino-2-fluoro-5-methyl-6-(trifluoromethyl)phenyl)-4-(3,8-diazabicyclo[3. 2.1]octane-3-yl)-2-(((S)-2-(methylene)tetrahydro-1H-pyrrolazin-7a(5H)-yl)methoxy)-7,8-dihydro-5H-thiopyrano[4,3-d]pyrimidine-6,6-dioxide], the IC50 was ≤ 0.01 µM.

Take `Cc1cc(N)nc(C2Cc3nc(OC[C@@]45CCCN4CC(=C(F)F)C5)nc(N4CC5CCC(C4)N5)c3CS2(=O)=O)c1C(F)(F)F` (stereo partly drawn) [Compound 18, 7-(6-amino-4-methyl-3-(trifluoromethyl)pyridin-2-yl)-2-(((S)-2-(difluoromethylene)tetrahydro-1H-pyrrolazin-7a(5H)-yl)methoxy)-4-(3,8-diazabicyclo[3.2.1]octane-3-yl)-7,8-dihydro-5H-thiopyrano[4,3-d]pyrimidine-6,6-dioxide]: the IC50 was ≤ 0.01 µM.
